Square brackets hold non-standard residues; d marks the D form. Ends that are not written are not given here. Peptide text beside a SMILES is read from it. hArg = N=C(N)NCCCC[C@H](N)C(=O)O; Nle = CCCC[C@H](N)C(=O)O; Orn = NCCC[C@H](N)C(=O)O
Assays:
[1] = Lowering of blood pressure, in vivo testing by the general procedure of Example III
[2] = biological target: T1, cultured rat pituitary cells (Rattus norvegicus, UniProt P35353); test: Stimulation of ACTH and β-endorphin secretion by cultured rat pituitary cells (general procedure of Example III); type: cell-based; details: general procedure of Example III
T1 sequence (P35353 24-415): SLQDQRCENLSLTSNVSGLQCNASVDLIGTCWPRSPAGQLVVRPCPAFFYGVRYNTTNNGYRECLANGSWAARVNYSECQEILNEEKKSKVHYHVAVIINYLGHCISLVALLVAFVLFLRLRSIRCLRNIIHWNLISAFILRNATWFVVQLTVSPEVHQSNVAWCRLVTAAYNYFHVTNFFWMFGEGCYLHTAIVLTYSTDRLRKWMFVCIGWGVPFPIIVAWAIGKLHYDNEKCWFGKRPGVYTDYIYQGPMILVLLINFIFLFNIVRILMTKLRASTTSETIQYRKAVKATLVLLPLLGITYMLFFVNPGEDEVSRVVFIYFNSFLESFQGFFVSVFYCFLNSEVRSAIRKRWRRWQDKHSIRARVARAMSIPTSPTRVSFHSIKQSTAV
Procedure: The synthetic peptide AHC and oCRF were examined for their effects on the secretion of ACTH and B-endorphin in vitro and was also in vivo. The potency of synthetic oCRF to stimulate the secretion of ACTH and β-endorphin by cultured rat pituitary cells was measured using the procedure as generally set forth in Endocrinology, 91, 562 (1972). […] In.vivo testing is carried out using the general procedure set forth in C. Rivier et al., Science, 218, 377 (1982).

| Compound | lowering of blood pressure [1] | secretion of ACTH and β-END-LI [2] |
| --- | --- | --- |
| CCCC[C@H](NC(=O)[C@H](CCC(=O)O)NC(=O)[C@H](CC(C)C)NC(=O)[C@H](CCCC)NC(=O)[C@H](CCC(=O)O)NC(=O)[C@H](CCCNC(=N)N)NC(=O)[C@H](CC(C)C)NC(=O)[C@H](CC(C)C)NC(=O)[C@H](Cc1c[nH]cn1)NC(=O)[C@H](Cc1ccccc1)NC(=O)[C@@H](NC(=O)[C@H](CC(C)C)NC(=O)[C@H](CC(=O)O)NC(=O)[C@H](CC(C)C)NC(=O)[C@H](CO)NC(=O)[C@@H](NC(=O)[C@@H]1CCCN1)[C@@H](C)CC)[C@@H](C)O)C(=O)N[C@@H](C)C(=O)N[C@@H](CCCNC(=N)N)C(=O)N[C@@H](C)C(=O)N[C@@H](CCC(=O)O)C(=O)N[C@@H](CCC(N)=O)C(=O)N[C@@H](CCC(=O)O)C(=O)N[C@@H](C)C(=O)N[C@@H](CCC(=O)O)C(=O)N[C@@H](CCC(N)=O)C(=O)N[C@@H](C)C(=O)N[C@@H](C)C(=O)N[C@@H](CC(C)C)C(=O)N[C@@H](CC(N)=O)C(=O)N[C@@H](CCCNC(=N)N)C(=O)N[C@@H](CC(C)C)C(=O)N[C@@H](CC(C)C)C(=O)N[C@@H](CC(C)C)C(=O)N[C@@H](CCC(=O)O)C(=O)N[C@@H](CCC(=O)O)C(=O)N[C@@H](C)C(N)=O [[Nle^18,21, Arg^23]-AHC(5-41)] (H-PISLDLTFHLLRE[Nle]LE[Nle]ARAEQEAEQAALNRLLLEEA-NH2) | very significant lowering of blood pressure | stimulates |
| H-SQEPPISLDLTFHLLRE[Nle]LE[Nle]TKADQLRQQAHSNRKLLDIA-NH2 [[Nle^18,21,Arg^28]-oCRF] | very significant lowering of blood pressure | stimulates |
| CCCC[C@H](NC(=O)[C@H](CCC(=O)O)NC(=O)[C@H](CC(C)C)NC(=O)[C@@H](NC(=O)[C@H](CCC(=O)O)NC(=O)[C@H](CCCNC(=N)N)NC(=O)[C@H](CC(C)C)NC(=O)[C@H](CC(C)C)NC(=O)[C@H](Cc1c[nH]cn1)NC(=O)[C@H](Cc1ccccc1)NC(=O)[C@@H](NC(=O)[C@H](CC(C)C)NC(=O)[C@H](CC(=O)O)NC(=O)[C@H](CC(C)C)NC(=O)[C@H](CO)NC(=O)[C@@H](NC(=O)[C@@H]1CCCN1C(=O)[C@H]1CCCN1)[C@@H](C)CC)[C@@H](C)O)C(C)C)C(=O)N[C@@H](C)C(=O)N[C@@H](CCCNC(=N)N)C(=O)N[C@@H](C)C(=O)N[C@@H](CCC(=O)O)C(=O)N[C@@H](CCC(N)=O)C(=O)N[C@@H](CC(C)C)C(=O)N[C@@H](C)C(=O)N[C@@H](CCC(N)=O)C(=O)N[C@@H](CCC(N)=O)C(=O)N[C@@H](C)C(=O)N[C@@H](Cc1c[nH]cn1)C(=O)N[C@@H](CO)C(=O)N[C@@H](CC(N)=O)C(=O)N[C@@H](CCCNC(=N)N)C(=O)N[C@@H](CCCCN)C(=O)N[C@@H](CC(C)C)C(=O)N[C@@H](CCSC)C(=O)N[C@@H](CCC(=O)O)C(=O)N[C@H](C(=O)N[C@H](C(N)=O)[C@@H](C)CC)[C@@H](C)CC [[D-Pro^4, Nle^21,38]-rCRF(4-41)] (H-[dP]PISLDLTFHLLREVLE[Nle]ARAEQLAQQAHSNRKLMEII-NH2) | very significant lowering of blood pressure | stimulates the secretion of ACTH and B-END-LI in an amount greater than oCRF |
| CC[C@H](C)[C@H](NC(=O)[C@H](CCC(=O)O)NC(=O)[C@H](CC(=O)O)NC(=O)[C@H](CCSC)NC(=O)[C@H](CC(C)C)NC(=O)[C@H](CCCCNC(=N)N)NC(=O)[C@H](CCCNC(=N)N)NC(=O)[C@H](CC(N)=O)NC(=O)[C@H](CC(N)=O)NC(=O)[C@H](C)NC(=O)[C@H](C)NC(=O)[C@H](CCC(N)=O)NC(=O)[C@H](CCC(N)=O)NC(=O)[C@H](CCCCN)NC(=O)[C@H](CC(C)C)NC(=O)[C@H](CCCCN)NC(=O)[C@H](CCC(=O)O)NC(=O)[C@H](CCC(N)=O)NC(=O)[C@H](CCCCN)NC(=O)[C@H](CCC(=O)O)NC(=O)[C@@H](NC(=O)[C@H](CCC(=O)O)NC(=O)[C@@H](NC(=O)[C@H](CCSC)NC(=O)[C@H](CCCCN)NC(=O)[C@H](CCCNC(=N)N)NC(=O)[C@H](CC(C)C)NC(=O)[C@H](CC(C)C)NC(=O)[C@H](CCC(=O)O)NC(=O)[C@H](CC(C)C)NC(=O)[C@H](CO)NC(=O)[C@H](CC(C)C)NC(=O)[C@H](CC(=O)O)NC(=O)[C@@H](NC(=O)[C@H](CO)NC(=O)[C@@H](NC(=O)[C@@H]1CCCN1C(=O)[C@@H]1CCCN1C(=O)CNC(=O)[C@@H]1CCC(=O)N1)[C@@H](C)CC)[C@@H](C)CC)[C@@H](C)CC)[C@@H](C)CC)C(N)=O [[Leu^26, Har^35, Met, Glu^39]-sauvagine] | very significant lowering of blood pressure | stimulates |
| CC[C@H](C)[C@H](NC(=O)[C@@H]1CCCN1C(=O)[C@@H]1CCCN1)C(=O)N[C@@H](CO)C(=O)N[C@@H](CC(C)C)C(=O)N[C@@H](CC(=O)O)C(=O)N[C@@H](CC(C)C)C(=O)N[C@H](C(=O)N[C@@H](CC(C)C)C(=O)N[C@@H](Cc1c[nH]cn1)C(=O)N[C@@H](CC(C)C)C(=O)N[C@@H](CC(C)C)C(=O)N[C@@H](CCCNC(=N)N)C(=O)N[C@@H](CCC(=O)O)C(=O)N[C@@H](CCSC)C(=O)N[C@@H](CC(C)C)C(=O)N[C@@H](CCC(=O)O)C(=O)N[C@@H](CCSC)C(=O)N[C@@H](CCC(=O)O)C(=O)N[C@@H](CCCN)C(=O)N[C@@H](C)C(=O)N[C@@H](CCC(=O)O)C(=O)N[C@@H](CCC(N)=O)C(=O)N[C@@H](CCC(=O)O)C(=O)N[C@@H](C)C(=O)N[C@@H](CCC(=O)O)C(=O)N[C@@H](CCC(N)=O)C(=O)N[C@@H](C)C(=O)N[C@@H](C)C(=O)N[C@@H](CC(C)C)C(=O)N[C@@H](CC(N)=O)C(=O)N[C@@H](CCCNC(=N)N)C(=O)N[C@@H](CCCCNC(=N)N)C(=O)N[C@@H](CC(C)C)C(=O)N[C@@H](CC(C)C)C(=O)N[C@@H](CCC(=O)O)C(=O)N[C@@H](CCC(=O)O)C(=O)N[C@@H](C)C(N)=O)[C@@H](C)O (H-PPISLDLTLHLLREMLEME[Orn]AEQEAEQAALNR[hArg]LLEEA-NH2) | very significant lowering of blood pressure | stimulates |
| SEEPPISLDLTFHLLREVLEMTRAEQLAEQAHSNRKLMEEI-NH2 [[Thr^22, Glu^29,40]-rCRF] | very significant lowering of blood pressure | stimulates |
| H-SQEPPISLDLTFALLREMLEMAKAEQEAEQAALNRLLLEEA-NH2 [[Ala^13]-AHC] | very significant lowering of blood pressure | stimulates |
| CCCC[C@H](NC(=O)[C@H](CCC(=O)O)NC(=O)[C@H](CC(C)C)NC(=O)[C@H](CCCC)NC(=O)[C@H](CCC(=O)O)NC(=O)[C@H](CCCNC(=N)N)NC(=O)[C@H](CC(C)C)NC(=O)[C@H](CC(C)C)NC(=O)[C@H](Cc1c[nH]cn1)NC(=O)[C@H](Cc1ccccc1)NC(=O)[C@@H](NC(=O)[C@H](CC(C)C)NC(=O)[C@H](CC(=O)O)NC(=O)[C@H](CC(C)C)NC(=O)[C@H](CO)NC(=O)[C@@H](NC(=O)[C@@H]1CCCN1C(=O)[C@@H]1CCCN1C(=O)[C@H](N)Cc1ccc(O)cc1)[C@@H](C)CC)[C@@H](C)O)C(=O)N[C@@H](C)C(=O)N[C@@H](CCCCN)C(=O)N[C@@H](C)C(=O)N[C@@H](CCC(=O)O)C(=O)N[C@@H](CCC(N)=O)C(=O)N[C@@H](CCC(=O)O)C(=O)N[C@@H](C)C(=O)N[C@@H](CCC(=O)O)C(=O)N[C@@H](CCC(N)=O)C(=O)N[C@@H](C)C(=O)N[C@@H](C)C(=O)N[C@@H](CC(C)C)C(=O)N[C@@H](CC(N)=O)C(=O)N[C@@H](CCCNC(=N)N)C(=O)N[C@@H](CC(C)C)C(=O)N[C@@H](CC(C)C)C(=O)N[C@@H](CC(C)C)C(=O)N[C@@H](CCC(=O)O)C(=O)N[C@@H](CCC(=O)O)C(=O)N[C@@H](C)C(N)=O [[D-Tyr^3, Nle^18,21)-AHC(3-41)] (H-[dY]PPISLDLTFHLLRE[Nle]LE[Nle]AKAEQEAEQAALNRLLLEEA-NH2) | very significant lowering of blood pressure | stimulates |
| H-SEEPPISLDLTLELLREMLEME[Orn]AEKEAEQAALNRLLLEEA-NH2 | very significant lowering of blood pressure | stimulates |
| H-YSEEPPISLDLTFHLLREVLEMARAEQLAEQAHSNRKLMEII-NH2 [[Tyr-Ser^1, Glu^29]-rCRF] | very significant lowering of blood pressure | stimulates |
| H-SEEPPISLDLTFHLLREVLE[Nle]ARAEQLAQQAYLNRKLMEEI-NH2 [[Nle^21, Tyr^32, Leu^33, Glu^40]-rCRF] | very significant lowering of blood pressure to a greater extent than rCRF | stimulates |
